Data as given in patent US20260364089A1, “PYRIDOPYRIMIDINE KRAS INHIBITORS” (Treeline Biosciences, Inc., priority 2022, published 2026).

biological target: T1, KRas G12V (Homo sapiens, UniProt P01116, G12V); assay: SOS1-Catalyzed Nucleotide Exchange Assay, KRas G12V (Method 2); format: biochemical; settings: Method 2, B; 5 nM KRas G12V (aa 1-169, GDP-loaded), 50 nM SOS1; read-out: KRas G12V IC50 (nM) (Method 2, B)
T1 construct: Biotinylated KRas G12V (aa 1-169) loaded with GDP nucleotide; biotin (biotinylated)
T1 sequence (P01116 1-169 G12V): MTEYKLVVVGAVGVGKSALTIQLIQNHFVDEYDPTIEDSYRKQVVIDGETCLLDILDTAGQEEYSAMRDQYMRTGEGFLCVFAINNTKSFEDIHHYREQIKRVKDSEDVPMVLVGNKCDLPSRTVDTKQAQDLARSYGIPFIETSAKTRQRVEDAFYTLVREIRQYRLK
Protocol: KRas G12V [Method 2]: Compounds were pre-dispensed via Echo liquid handling (acoustic, touch-free) to generate assay ready plates (ARP). More precisely, a 10-point concentration response curve for each compound was prepared with appropriate top concentration (1 μM, 10 μM, 100 μM). Biotinylated KRas G12V (aa 1-169) loaded with GDP nucleotide and Streptavidin-Europium (SA-EU, Columbia Biosciences) were preincubated in assay buffer (20 mM HEPES pH 7.4, 150 mM NaCl, 5 mM MgCl2, 1 mM DTT, 0.01% Brij-35, 0.3 mg/mL BSA) on ice for 30 min. Separately SOS1 (aa 546-1049) and EDA-GTP-DY647P1 (Jena Bioscience) were preincubated in assay buffer on ice for 30 min. After 30 minutes of incubation for the assay components, 5 μL buffer and 5 μL of KRas G12V-SA-Eu were added to each well of the ARP. After a further 30 min, 5 μL of SOS1-EDA-GTP-D467P1 was added to start the nucleotide exchange reaction. Final concentration in the assay were 5 nM KRas G12V, 50 nM SOS1 (aa 564-1049). The reaction was allowed to proceed for 60-90 minutes after which the plate was read on a plate reader. After normalization of the raw data, the data was fit to a four-parameter logistic curve.

Structure (SMILES)	IC50 [nM]
Nc1cc(Cl)c2c(c1)-c1ccc3c(nc(OC[C@@]45CCCN4C[C@H](F)C5)nc3c1F)N1CCCC(CCNC(=O)CCCC2)C1 (stereo partly drawn) [Compound 165a, 3^5-amino-3^3-chloro-2^8-fluoro-2^2-(((2R,7aS)-2-fluorotetrahydro-1H-pyrrolizin-7a(5H)-yl)methoxy)-9-aza-2(4,7)-quinazolina-1(1,3)-piperidina-3(1,2)-benzenacycloundecaphan-8-one]	≤ 100
O=C1CCCCc2ccc3[nH]ncc3c2-c2ccc3c(nc(OC[C@@]45CCCN4C[C@H](F)C5)nc3c2F)N2CCCC(CCN1)C2 (stereo partly drawn) [Compound 166a, 2^8-fluoro-2^2-(((2R,7aS)-2-fluorotetrahydro-1H-pyrrolizin-7a(5H)-yl)methoxy)-1^1H-6-aza-2(7,4)-quinazolina-1(4,5)-indazola-3(1,3)-piperidinacycloundecaphan-7-one]	≤ 100
O=C1CCCCc2ccc3[nH]ncc3c2-c2ncc3c(nc(OC[C@@]45CCCN4C[C@H](F)C5)nc3c2F)N2CCCC(CCN1)C2 (stereo partly drawn) [Compound 167a, 2^8-fluoro-2^2-(((2R,7aS)-2-fluorotetrahydro-1H-pyrrolizin-7a(5H)-yl)methoxy)-1^1H-6-aza-2(7,4)-pyrido[4,3-d]pyrimidina-1(4,5)-indazola-3(1,3)-piperidinacycloundecaphan-7-one]	≤ 100
O=C1CCCc2c(F)ccc3cccc(c23)-c2ncc3c(nc(OC[C@@]45CCCN4C[C@H](F)C5)nc3c2F)N2CCCC(CCN1)C2 (stereo partly drawn) [Compound 170a, 2^8,3^7-difluoro-2^2-(((2R,7aS)-2-fluorotetrahydro-1H-pyrrolizin-7a(5H)-yl)methoxy)-8-aza-2(4,7)-pyrido[4,3-d]pyrimidina-1(1,3)-piperidina-3(1,8)-naphthalenacyclodecaphan-7-one]	≤ 100
CN1CCC[C@H]1COc1nc2c3cnc(c(F)c3n1)-c1cc(N)cc(Cl)c1CCCCC(=O)NCCC1CCCN2C1 (stereo partly drawn) [Compound 171a, 3^5-amino-3^3-chloro-2^8-fluoro-2^2-(((S)-1-methylpyrrolidin-2-yl)methoxy)-9-aza-2(4,7)-pyrido[4,3-d]pyrimidina-1(1,3)-piperidina-3(1,2)-benzenacycloundecaphan-8-one]	100 to 1000
Nc1cc2c(c(Cl)c1F)CCCCC(=O)NCCC1CCCN(C1)c1nc(OC[C@@]34CCCN3C[C@H](F)C4)nc3c(F)c-2ncc13 (stereo partly drawn) [Compound 172a, 3^5-amino-3^3-chloro-2^8,3^4-difluoro-2^2-(((2R,7aS)-2-fluorotetrahydro-1H-pyrrolizin-7a(5H)-yl)methoxy)-9-aza-2(4,7)-pyrido[4,3-d]pyrimidina-1(1,3)-piperidina-3(1,2)-benzenacycloundecaphan-8-one]	≤ 100
O=C1CCCc2c(F)ccc3cc(O)cc(c23)-c2ncc3c(nc(OC[C@@]45CCCN4C[C@H](F)C5)nc3c2F)N2CCOCC(CN1)C2 (stereo partly drawn) [Compound 173a, 2^8,3^7-difluoro-2^2-(((2R,7aS)-2-fluorotetrahydro-1H-pyrrolizin-7a(5H)-yl)methoxy)-3^3-hydroxy-8-aza-1(4,6)-oxazepana-2(4,7)-pyrido[4,3-d]pyrimidina-3(1,8)-naphthalenacyclononaphan-7-one]	≤ 100
Nc1cc2c(c(Cl)c1F)CCCCC(=O)NCCC1CCCN(C1)c1nc(OC[C@@]34CCCN3C[C@H](F)C4)nc3c(F)c-2ccc13 (stereo partly drawn) [Compound 174a, 3^5-amino-3^3-chloro-2^8,3^4-difluoro-2^2-(((2R,7aS)-2-fluorotetrahydro-1H-pyrrolizin-7a(5H)-yl)methoxy)-9-aza-2(4,7)-quinazolina-1(1,3)-piperidina-3(1,2)-benzenacycloundecaphan-8-one]	100 to 1000
O=C1CCCc2c(F)ccc3cc(O)cc(c23)-c2ccc3c(nc(OC[C@@]45CCCN4C[C@H](F)C5)nc3c2F)N2CCCC(CCN1)C2 (stereo partly drawn) [Compound 175a, 2^8,3^7-difluoro-2^2-(((2R,7aS)-2-fluorotetrahydro-1H-pyrrolizin-7a(5H)-yl)methoxy)-3^3-hydroxy-8-aza-2(4,7)-quinazolina-1(1,3)-piperidina-3(1,8)-naphthalenacyclodecaphan-7-one]	≤ 100
CN1CCC[C@H]1CCOc1nc2c3cnc(c(F)c3n1)-c1cc(N)cc(Cl)c1CCCCC(=O)NCCC1CCCN2C1 (stereo partly drawn) [Compound 176a, 3^5-amino-3^3-chloro-2^8-fluoro-2^2-(2-((S)-1-methylpyrrolidin-2-yl)ethoxy)-9-aza-2(4,7)-pyrido[4,3-d]pyrimidina-1(1,3)-piperidina-3(1,2)-benzenacycloundecaphan-8-one]	100 to 1000
Nc1cc(Cl)c2c(c1)-c1ncc3c(nc(OCC4(CN5CCOCC5)CC4)nc3c1F)N1CCCC(CCNC(=O)CCCC2)C1 (stereo not shown) [Compound 177, 3^5-amino-3^3-chloro-2^8-fluoro-2^2-((1-(morpholinomethyl)cyclopropyl)methoxy)-9-aza-2(4,7)-pyrido[4,3-d]pyrimidina-1(1,3)-piperidina-3(1,2)-benzenacycloundecaphan-8-one]	100 to 1000
CN(C)CC1(COc2nc3c4cnc(c(F)c4n2)-c2cc(N)cc(Cl)c2CCCCC(=O)NCCC2CCCN3C2)CC1 (stereo not shown) [Compound 178, 3^5-amino-3^3-chloro-2^2-((1-((dimethylamino)methyl)cyclopropyl)methoxy)-2^8-fluoro-9-aza-2(4,7)-pyrido[4,3-d]pyrimidina-1(1,3)-piperidina-3(1,2)-benzenacycloundecaphan-8-one]	100 to 1000
CN1C[C@H](F)C[C@H]1COc1nc2c3cnc(c(F)c3n1)-c1cc(N)cc(Cl)c1CCCCC(=O)NCCC1CCCN2C1 (stereo partly drawn) [Compound 179a, 3^5-amino-3^3-chloro-2^8-fluoro-2^2-(((2S,4R)-4-fluoro-1-methylpyrrolidin-2-yl)methoxy)-9-aza-2(4,7)-pyrido[4,3-d]pyrimidina-1(1,3)-piperidina-3(1,2)-benzenacycloundecaphan-8-one]	100 to 1000
Nc1cc2c(c(Cl)c1F)CCCCC(=O)NCCC1(O)CCCN(C1)c1nc(OC[C@@]34CCCN3C[C@H](F)C4)nc3c(F)c-2ccc13 (stereo partly drawn) [Compound 180a, 3^5-amino-3^3-chloro-2^8,3^4-difluoro-2^2-(((2R,7aS)-2-fluorotetrahydro-1H-pyrrolizin-7a(5H)-yl)methoxy)-13-hydroxy-9-aza-2(4,7)-quinazolina-1(1,3)-piperidina-3(1,2)-benzenacycloundecaphan-8-one]	100 to 1000
Nc1cc2c(c(C(F)(F)F)c1)CCCCC(=O)NCCC1CCCN(C1)c1nc(OC[C@@]34CCCN3C[C@H](F)C4)nc3c(F)c-2ncc13 (stereo partly drawn) [Compound 181a, 3^5-amino-2^8-fluoro-2^2-(((2R,7aS)-2-fluorotetrahydro-1H-pyrrolizin-7a(5H)-yl)methoxy)-3^3-(trifluoromethyl)-9-aza-2(4,7)-pyrido[4,3-d]pyrimidina-1(1,3)-piperidina-3(1,2)-benzenacycloundecaphan-8-one]	1000 to 10000
Nc1cc2c(c(Cl)c1F)CCCCC(=O)NCC1COCCN(C1)c1nc(OC[C@@]34CCCN3C[C@H](F)C4)nc3c(F)c-2ncc13 (stereo partly drawn) [Compound 182a, 3^5-amino-3^3-chloro-2^8,3^4-difluoro-2^2-(((2R,7aS)-2-fluorotetrahydro-1H-pyrrolizin-7a(5H)-yl)methoxy)-9-aza-1(4,6)-oxazepana-2(4,7)-pyrido[4,3-d]pyrimidina-3(1,2)-benzenacyclodecaphan-8-one]	100 to 1000
